Target: T1, AR (Homo sapiens, UniProt P10275, T878A)
T1 construct: 95 μL of either LNCaP cell extracts or recombinant AR protein; endogenous in cells; host or cells: LNCaP
T1 sequence (P10275 1-920 T878A): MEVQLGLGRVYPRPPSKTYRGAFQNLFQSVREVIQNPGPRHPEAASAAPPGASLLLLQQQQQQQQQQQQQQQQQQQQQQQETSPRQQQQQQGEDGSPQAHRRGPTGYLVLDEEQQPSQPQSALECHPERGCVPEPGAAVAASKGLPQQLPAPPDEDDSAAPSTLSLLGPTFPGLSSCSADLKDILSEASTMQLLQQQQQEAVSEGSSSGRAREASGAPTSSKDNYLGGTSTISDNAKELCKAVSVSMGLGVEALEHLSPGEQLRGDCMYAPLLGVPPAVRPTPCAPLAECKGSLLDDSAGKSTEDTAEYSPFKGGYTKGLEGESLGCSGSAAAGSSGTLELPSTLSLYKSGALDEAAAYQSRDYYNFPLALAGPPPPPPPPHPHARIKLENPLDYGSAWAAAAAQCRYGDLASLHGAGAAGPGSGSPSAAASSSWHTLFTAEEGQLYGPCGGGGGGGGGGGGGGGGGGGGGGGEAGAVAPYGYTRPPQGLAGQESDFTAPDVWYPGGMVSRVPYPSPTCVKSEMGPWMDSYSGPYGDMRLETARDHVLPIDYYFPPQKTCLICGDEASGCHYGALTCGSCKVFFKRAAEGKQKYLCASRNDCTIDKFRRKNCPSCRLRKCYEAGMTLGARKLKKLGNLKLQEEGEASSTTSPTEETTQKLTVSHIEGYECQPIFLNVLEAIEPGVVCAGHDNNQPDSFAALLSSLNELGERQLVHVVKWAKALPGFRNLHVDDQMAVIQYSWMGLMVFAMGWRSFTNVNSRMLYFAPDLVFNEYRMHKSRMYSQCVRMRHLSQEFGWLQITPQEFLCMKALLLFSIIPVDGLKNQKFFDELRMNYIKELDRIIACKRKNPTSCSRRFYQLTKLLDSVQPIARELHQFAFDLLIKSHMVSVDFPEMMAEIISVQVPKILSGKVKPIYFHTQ
Assay: AR cytoplasmic/nuclear distribution by subcellular fractionation and Western blot in LNCaP cells
Assay type: cell-based
Procedure: Subcellular Fractionation. Three near confluent (80-90%) cultures of LNCaP cells in 100 mm Petri dishes were used for each treatment. Treatments were added as 1 μL of 1,000× solution in DMSO per ml of medium for the indicated time. After incubation with treatments at 37° C., cytosolic and nuclear proteins were prepared as described (32,33) with modifications. Briefly, cells were lysed in hypotonic buffer (10 mM Hepes, pH 7.5) and harvested in MDH buffer (3 mM MgCl2, 1 mM DTT, 25 mM Hepes, pH 7.5). After homogenization, supernatant was saved for cytosolic proteins and nuclear proteins were extracted from the pellets using MDHK buffer (3 mM MgCl2, 1 mM DTT, 0.1 M KCl, 25 mM Hepes, pH 7.5) followed by HDK buffer (25 mM Hepes, pH 7.5, 1 mM DTT, 0.4 M KCl). Cytosolic and nuclear extracts were subsequently analyzed by Western blot analysis.
Western Blot Analysis. Following the indicated treatment, Western immunoblot analyses of androgen receptor from LNCaP cells were performed as described previously (20). […] The amount of protein was quantified by Gel Densitometer (Bio-Rad) and normalized with P-actin when used as an internal control.

c1ccc2c(Cc3c[nH]c4ccccc34)c[nH]c2c1 [DIM, 3,3′-diindolylmethane]
effect on nuclear translocation of the AR, compound alone (absence of DHT): had no effect | block of DHT-induced AR translocation (co-treatment with 1 nM DHT): up to 75%
